The values below come from patent US7405238B2, “Pharmacological inducement of the fed mode for enhanced drug administration to the stomach” (priority 1999, dated 2008).

Assay [1] concerns female beagles. Put plainly: Retention time of BaSO4 swelling tablet in stomach, dogs fasted 24 hours, Example 3. The format is in vivo, dog. The following applies: mean of five dogs fasted 24 hours. As for the experimental part:
(§1) Test formulations were administered in various regimens. In some of the tests, the dogs were given an immediate release (IR) regimen in the form of a single gelatin capsule containing a test species in a selected amount. A simulated controlled release (SCR) regimen was used in other tests by administering a gelatin capsule containing a test species in a selected amount every half hour. A third regimen was a controlled release (CR) regimen, in which the test species was incorporated in a compressed tablet of POLYOX 303 and magnesium stearate. […] The barium tablets were visualized every thirty minutes by fluoroscopy until they left the stomach. The time of the last observation of the 800 mg tablet in the stomach was recorded as the retention time. The test group also included a negative control using a fasted dog with no test formulations administered, and a positive control using a dog that was fed a standard 50 g meal but no test formulations.
(§2) Further tests were performed on a second group of dogs, consisting of five female beagles one year in age and weighing 5-7 kg each. The test protocols were the same as those in Example 1 except that the dogs were fasted for 24 hours before each test, and the test results are listed in Table II below, which lists the mean of the results observed among the five dogs as well as the range among the dogs for each test.
Further tests were performed on the second group of dogs, consisting of five female beagles one year in age and weighing 5-7 kg each. The test protocols were the same as those in Example 2, except that the controls were replaced by a negative control consisting of AVICEL (microcrystalline cellulose, FMC Corporation, Philadelphia, Pa., USA), administered as a simulated controlled release at 10 mg every half hour. The test results are listed in Table III below, which lists the mean of the results observed among the five dogs as well as the range among the dogs for each test.

Assay [2] concerns dogs. The following applies: administered in excess of 1 g; cited from earlier work.
Assay [3] deals with male beagles. Briefly: Retention time of BaSO4 swelling tablet in stomach, dogs, Example 1. The format is in vivo, dog. The following applies: 7.94 × 19.05 mm BaSO4 tablet, mean of four dogs. The method, then:
(§3) Four dogs, all male beagles ranging in age from 10 months to 21 months and weighing from 6 kg to 10 kg each, were housed individually and each was fed a 1:1 (weight ratio) wet:dry mixture of food weighing 300 g once daily at 3:00 p.m. Water was provided ad libitum. The dogs were fasted for 6-8 hours overnight, preceded by the removal of feces and any uneaten food.
as §1
The test results in terms of the retention times in hours are shown in Table I, which lists the means of the results observed among the four dogs as well as the range among the dogs for each test.

Assay [4] concerns female beagles. Briefly: Retention time of BaSO4 swelling tablet in stomach, dogs fasted 24 hours, Example 2. The following applies: mean of five dogs fasted 24 hours. The format is in vivo, dog. As for the experimental part:
as §3, §1, §2

Values joined by “and” are separate entries in the source; they are usually repeats but may differ in a detail not shown here. Equal entries are not always repeated. Peptide text beside a SMILES is read from it.

For the compound `COC(=O)[C@H](Cc1ccccc1)NC(=O)[C@@H](N)CC(=O)O` [Aspartame] (H-Asp-Phe-OMe), the “Retention Time (h) Mean” value in assay [1] (200 mg, IR) is 3.8 ± 2.3 h.
Consider glycine, for which the “effect on gastric emptying” value in assay [2] is on record as “slowed gastric emptying”.
For `NC(Cc1c[nH]c2ccccc12)C(=O)NC(Cc1c[nH]c2ccccc12)C(=O)O` (stereo not drawn) [Trp-Trp], the “Retention Time (h) Mean” value was 3.1 ± 3.9 h and 2.1 ± 1.8 h in assay [3] (200 mg, IR); 2.8 ± 0.3 h in assay [3] (SCR, 20 mg every thirty minutes); 4.6 ± 1.5 h in assay [4] (SCR, 5 mg every thirty minutes); 2.4 ± 1.8 h in assay [4] (SCR, 10 mg every thirty minutes); 3.4 ± 1.9 h in assay [4] (SCR, 40 mg every thirty minutes); 4.6 ± 1.7 h in assay [1] (SCR, 0.5 mg every thirty minutes). In assay [1] (SCR, 2 mg every thirty minutes), the “Retention Time (h) Mean” value came out at 4.2 ± 1.1 h.
For `OC[C@@H](O)[C@H](O)[C@@H](O)CO` [Xylitol, CH2OH—(CHOH)3—CH2OH], the “Retention Time (h) Mean” value in assay [3] (600 mg, IR) was 3.1 ± 1.5 h.
`CCCCCCCCCCCCCCCC[n+]1ccccc1.[Cl-]` [Cetylpyridinium chloride, reference compound]: the “Retention Time (h) Mean” value in assay [4] (20 mg, IR) stood at 4.5 ± 2.6 h; in assay [4] (50 mg, IR) it was 4.0 ± 1.3 h; in assay [4] (100 mg, IR) it was 3.2 ± 0.9 h; in assay [1] (5 mg, IR), 4.0 ± 2.8 h; in assay [1] (20 mg, IR) it was 4.45 ± 2.6 h.
In the case of `N[C@@H](Cc1c[nH]c2ccccc12)C(=O)O` [tryptophan], the “effect on gastric emptying” value in assay [2] is on record as “slowed gastric emptying”.
For the compound `CN(C)C(=O)C(CCN1CCC(O)(c2ccc(Cl)cc2)CC1)(c1ccccc1)c1ccccc1` [Loperamide, 4-(p-chlorophenyl)-4-hydroxy-N,N-dimethyl-α,α-diphenyl-1-piperidinebutyramide, reference compound], the “Retention Time (h) Mean” value in assay [3] (0.1 mg, IR) turned out to be 2.5 ± 1.3 h.
For “β-Casomorphin: peptide released from β-casein; bovine sequence Tyr-Pro-Phe-Pro-Gly-Pro-Ile; species tested not stated (YPFPGPI; printed: Tyr-Pro-Phe-Pro-Gly-Pro-Ile)”, the “Retention Time (h) Mean” value in assay [3] (25 mg, IR) was found to be 2.6 ± 1.1 h; in assay [1] (10 mg, IR), 3.5 ± 2.1 h.
Regarding `N=C(N)NCCC[C@H](N)C(=O)O` [L-Arginine], the “Retention Time (h) Mean” value in assay [3] (300 mg, CR (POLYOX 303 tablet)) was found to be 3.6 ± 1.6 h; in assay [3] (400 mg, IR) it was 1.6 ± 0.2 h. In addition, in assay [2], the “effect on gastric emptying” value is recorded as “slowed gastric emptying”.
Take `O=C(O)CCCCC1CCSS1` (stereo not drawn) [α-Lipoic acid]: the “Retention Time (h) Mean” value in assay [3] (150 mg, IR) is 2.8 ± 1.6 h.
`CCCCC(CC)COC(=O)CC(C(=O)OCC(CC)CCCC)S(=O)(=O)O` (stereo not drawn) [Na docusate, reference compound]: in assay [3] (200 mg, IR), the “Retention Time (h) Mean” value was found to be 2.6 ± 1.4 h.
